From paper PMC11868579 (Nature Communications, 2024) come the findings set out here.

“And” between values parts separate entries of the source, which are not always exact repeats. Equal entries are not always repeated.

Data set [1] relates to parent H1299 cells. Kind of data set: MCL1 and growth in parental H1299 cells. The class given is cell-based, human. As to the method: Real time monitoring of cell growth was performed with the IncuCyte ZOOM live cell imaging system (Essen BioSciences, USA). Cells were seeded in 96 well plates (Corning, cat#353072) and treated on the next day. The resulting phase-contrast images were analysed using IncuCyte ZOOM 2018A software and results were expressed as percentage confluency of cells.
After seeding overnight in 6 well plates (Corning, cat#353046), cells were treated with compounds for the indicated times and concentration, harvested and the cell pellet lysed on ice in cell lysis buffer (Cell Signaling, cat#9803), supplemented with 1x Halt^TM protease inhibitor cocktail (Fisher Scientific, cat#78429) and cOmplete^TM protease inhibitor cocktail (Sigma-Aldrich, cat#11836153001) for 1 hr. Protein was quantified using BCA protein kit (Fisher Scientific, cat#23225). Western blot was performed using NuPAGE^TM 4–12% Bis-Tris gels (Fisher Scientific, cat#NP0336BOX) and transferred using the Invitrogen iBLOT^TM gel transfer device system (Fisher Scientific, Cat#IB21001). […] All primary antibodies were diluted (1:1000) in 5% BSA (Sigma-Aldrich, cat#A7906) in 1x TBS and 0.1% Tween 20 (Sigma-Aldrich, cat#P1379), except for vinculin (1:2000) that was diluted in casein blocker (Sigma-Aldrich, cat#1610782). […] Quantitative densitometry analysis of protein bands was performed using Image J v1.53 software.

Data set [2] can be described thus: Plasma protein binding, rapid equilibrium dialysis. Conditions: human plasma, 1 µM, 16 hrs. Type of data set: in vitro ADME. On the procedure:
Measurement of aqueous kinetic solubility at pH 7.5
Solubility was measured in 50 mM HEPES, 100 mM NaCl (15% D2O, 85% H2O) in the presence of 1 mM TCEP at pH 7.5. Samples were prepared at 50 mM in DMSO-d6, diluted x 50 into buffer affording nominal concentrations of 1 mM and analysed by 1H quantitative NMR. Spectra were acquired at 300K in 5 mm tubes on a 400 MHz Bruker Avance III HD spectrometer equipped with a BBO-F probe using water suppression (presat/Watergate). A 5 mM sample of 4-hydroxybenzoic acid was used as the qNMR standard. The raw data files were processed using MNova with qNMR […]
Caco-2 permeability Assay
The permeability of Compound 4 was assessed using the CacoReady system.
Compound 4 and control compounds (propranolol, antipyrine, and vinblastine) were incubated at a final concentration of 10 µM in duplicate to either the apical (180 µL) of the monolayer to measure apical to basolateral transport (A > B) across the cell barrier or to the basolateral side (750 µL) to measure the basolateral to apical transport (B > A). […]
Plasma protein binding measured using the rapid equilibrium dialysis (RED) device system. […] Percent bound was calculated as the ([plasma cmpt] / [plasma cmpt + […]

In data set [3] the target is eIF4E:eIF4G interaction (Homo sapiens, UniProt P06730). Kind of data set: Electro-chemiluminescent binding assay, eIF4E:eIF4G, SW620 cell lysates. The class given is biochemical. The arrangement: endogenous in cells; host or cells: SW620 cells (lysates). To be noted: for eIF4G:eIF4E luminescence signal normalised to DMSO control: SW620, Expt 1, Expt 2, Fig. 4d. On the procedure: This assay uses plates with carbon electrodes and electro-chemiluminescent labels (SULFO-TAGs) that are conjugated to detection antibodies. When an electric current is applied to the plate electrodes the SULFO-TAG labels will emit light that is measured to quantify analytes in the sample. […] The plates were washed with 3 ×150 µl/well MSD wash buffer (cat#R61AA-1; 0.2% Tween-20 in PBS), then blocked with 150 µl/well block buffer (MSD, cat# R93AA) for 1 h. […] The incubated plates were washed 4x in 150 µl in MSD wash buffer and were re-blocked by the addition of 25 μl of blocking buffer containing a 1:500 dilution of the secondary antibody and incubated for 1 hr at RT with rotational shaking. […] Plates were then washed again 4x in 150 µl in MSD wash buffer and 25 μl of a 1:50 dilution of Goat anti-rabbit Sulfo-Tag (MSD, Cat# R32AB-1) in MSD blocking buffer was added and the plates incubated for 1 h at RT with rotational shaking. After a final wash step, 150 μl Read Buffer T4X (MSD, Cat# R92-TC2) was added and the plate read using the MSD QuickPlex SQ 120 plate reader.
Sequence of eIF4E:eIF4G interaction (P06730 2-217 limits assumed): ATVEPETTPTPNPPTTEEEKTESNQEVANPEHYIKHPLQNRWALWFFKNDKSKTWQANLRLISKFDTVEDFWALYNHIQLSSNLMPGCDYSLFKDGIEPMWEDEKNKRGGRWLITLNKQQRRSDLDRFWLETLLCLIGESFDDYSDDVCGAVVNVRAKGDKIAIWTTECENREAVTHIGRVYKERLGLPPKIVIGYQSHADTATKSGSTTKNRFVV

`CC[C@H](C(=O)N1CCCC[C@H]1C(=O)O[C@H](CCc1ccc(OC)c(OC)c1)c1ccccc1OCC(=O)NCCCCCCC(=O)N[C@H](C(=O)N1C[C@H](O)C[C@H]1C(=O)N[C@@H](C)c1ccc(-c2scnc2C)cc1)C(C)(C)C)c1cc(OC)c(OC)c(OC)c1` [dTAG^V-1]: in data set [1], the “effect on MCL1 or proliferation in parent cells” value is recorded as “no effect on MCL1 or proliferation”.
In data set [2], `CC[C@H](O[C@H](C)CO)c1ccc(-c2ccccc2F)cc1NCCO` [Compound 4] came in with a Plasma protein binding of 98.9%. The “eIF4G:eIF4E luminescence signal normalised to DMSO control” value in data set [3] (0.4 μM) is 89% and 92.6%; in data set [3] (4 μM) it was 47.4% and 46.9%; in data set [3] (12 μM) it was 33.5% and 31.6%; in data set [3] (40 μM), 20.4% and 20.8%. Besides, in data set [3] (SW620 lysates, 100 µM, 30 min, single experiments Expt 1, Expt 2), the “eIF4G:eIF4E SW620, luminescence ratio normalised to DMSO control” value is 23% and 19%. Moreover, the EC50 in data set [3] (read-out: EC50, eIF4G binding to eIF4E, SW620 cell lysates, 30 min) is 2600 nM.

What is called EC50 is the concentration giving half of the maximal effect.
